Source: patent publication US20250270316A1, “PHARMACEUTICAL COMBINATION AND USE THEREOF” (TIANJIN LIPOGEN TECHNOLOGY CO., LTD, priority 2021, published 2025)
Values joined by “and” are separate entries in the source; they are usually repeats but may differ in a detail not shown here. Identical values can stand only once.

Legend:
Type in all cases: in vivo, mouse
[1] = tested on: colorectal cancer MC38 humanized CD274 cell; assay: Example 8: MC38 humanized CD274 xenograft model, RB0005 and Gardiquimod; conditions: i.t. every other day x3; RB0005 1 mg/kg, Gardiquimod 5 mg/kg, combination as single preparation
Protocol: (§1) Tumor cells were cultured and passaged, cells were collected at the logarithmic phase, and formulated into a concentration of (1.0×10^7) per milliliter of cell suspension with 0.1 ml (with a cell number of 1.0×10^6) being injected into the right flank of the mice, the tumor grew to a diameter of about 5 mm within about 10 days, and the model was successfully established, they were randomly divided into 8 groups.
(§2) Tumor weight inhibitory rate=[1−average tumor weight of experimental group (G2/G3/G4)/average tumor weight of negative control group G1)]×100%.
Anti-Tumor Effect of Pharmaceutical Combination Consisting of PD-L1 Inhibitor RB0005 and Other Types of TLR7/8 Agonists (Gardiquimod)
(§3) After a colorectal cancer MC38 humanized CD274 cell subcutaneously-Xenograft tumor model in mice was successfully established, random grouping was performed, and each group had 6-8 mice, which were administered once every two days with a total of 3 times.

colorectal cancer MC38 = assay: Example 3: MC38 xenograft tumor model in mice, RB0005 and different doses of Imiquimod; conditions: i.t. every other day x3; RB0005 1 mg/kg (G2), Imiquimod 5 mg/kg (G5), both in single dosage form (G8)
Protocol: as §1, §2
A colorectal cancer MC38 Xenograft tumor model in mice was used to test an anti-tumor effect of a pharmaceutical combination consisting of a PD-L1 inhibitor RB0005 and different doses of TLR7/TLR8 agonists Imiquimod, that is, the inhibitory effect on the growth of subcutaneous xenograft tumor in mice.
After a subcutaneous xenograft tumor model in mice was successfully established, random grouping was performed, and each group had 8 mice, which were administered once every two days.

[2] = tested on: colorectal cancer MC38 humanized CD274 cell; assay: Example 12: MC38 humanized CD274 xenograft model, sequential administration of Imiquimod and RB0005; conditions: i.t.; RB0005 1 mg/kg, Imiquimod 5 mg/kg; G4 sequential: agonist first, PD-L1 inhibitor after 48 h, total of 3 times
Protocol: as §1, §2

[3] = tested on: colorectal cancer MC38 humanized PD1; assay: Example 10.1: MC38 humanized PD1 xenograft model, marketed PD-1 inhibitors and Imiquimod; conditions: i.t. every other day x3; PD-1 antibody 10 mg/kg, Imiquimod (LPG2005) 5 mg/kg, combinations as single preparation
Protocol: as §1, §2
10.1 Anti-Tumor Effect of Composite Preparation (Single Dosage Form) Consisting of a Marketed PD-1 or PD-L1 Inhibitor and a TLR7/8 Agonist Imiquimod
After a colorectal cancer MC38 humanized PD1 subcutaneous xenograft tumor model was successfully established, random grouping was performed, and each group had 6-8 mice, which were administered once every two days with a total of 3 times.

[4] = tested on: colorectal cancer MC38 humanized CD274 cell; assay: Example 6: MC38 humanized CD274 xenograft model, LPG2006 single dosage form with different Imiquimod doses; conditions: i.t. every other day x3
Protocol: as §1, §2, §3

[5] = tested on: colorectal carcinoma MC38; assay: Example 1: MC38 subcutaneous xenograft tumor model in mice, RB0005 and Imiquimod; conditions: as of the end; i.t. every other day; RB0005 1 mg/kg, Imiquimod 5 mg/kg, combination in single dosage form; tumor volume >2000 mm^3 counted as death
Protocol: C57/BL6JNifdc mouse, female, body weight of 17-22 g, aged 6-8 weeks, SPF grade, purchased from Beijing Vital River Laboratory Animal Technology Co., Ltd. [Experimental Animal Quality Certificate No.: SCXK (Beijing) 2016-0006].
as §1, §2
The anti-tumor effect of a pharmaceutical combination composed of PD-L1 inhibitor RB0005 and a TLR7/TLR8 agonist Imiquimod (LPG2005) was tested using a xenograft tumor model, i.e., the inhibitory effect on the growth of subcutaneous xenograft tumor in mice.
After successfully establishing a subcutaneous xenograft tumor model of colorectal carcinoma MC38 in mice, it was randomly grouped with 6-8 mice per group. The mice were administered once every two days, with a total of three times followed by observation until 15 days.

[6] = tested on: colorectal carcinoma MC38 (humanized PD-1 model); assay: Example 2: humanized PD-1 MC38 subcutaneous xenograft tumor model in mice, RB0004 and Imiquimod; conditions: Imiquimod 5 mg/kg i.t., RB0004 10 mg/kg i.p.
Protocol: as §1, §2
The anti-tumor effect of a pharmaceutical combination composed of PD-1 inhibitor RB0004 and a TLR7/TLR8 agonist Imiquimod was tested using a xenograft tumor model, i.e., the inhibitory effect on the growth of subcutaneous xenograft tumor in mice.
After successfully establishing a humanized PD-1 subcutaneous xenograft tumor model of colorectal carcinoma MC38 in mice, they were randomly grouped with 8 mice per group and administered once every two days.

[7] = tested on: colorectal cancer MC38 humanized CD274 cell; assay: Example 7: MC38 humanized CD274 xenograft model, intraperitoneal vs intratumoral administration; conditions: every other day x3
Protocol: as §1, §2, §3

[8] = tested on: colorectal cancer MC38 humanized CD274 cell; assay: Example 10.2: MC38 humanized CD274 xenograft model, Durvalumab or RB0005 and Imiquimod; conditions: i.t. every other day x3; Durvalumab or RB0005 1 mg/kg, Imiquimod (LPG2005) 5 mg/kg, combinations as single preparation
Protocol: as §1, §2, §3

[9] = tested on: colorectal cancer CT26 humanized CD274 cell; assay: Example 11: CT26 humanized CD274 xenograft model, LPG2006; conditions: CT26.sgcd274 CD274, i.t. every other day x3, Imiquimod 5 mg/kg
Protocol: as §1, §2
Combination LPG2006 (Single Dosage Form) Consisting of PD-L1 Inhibitor RB0005 and Imiquimod, CT26 Tumor Model
After a colorectal cancer CT26 humanized CD274 cell subcutaneous xenograft tumor model in mice was successfully established, random grouping was performed, and each group had 6-8 mice, which were administered once every two days with a total of 3 times.

[10] = tested on: colorectal cancer MC38 humanized CD274 cell; assay: Example 9: MC38 humanized CD274 xenograft model, RB0005 and Resiquimod; conditions: i.t. every other day x3; RB0005 1 mg/kg, Resiquimod 5 mg/kg, combination as single preparation
Protocol: as §1, §2
Anti-Tumor Effect of Pharmaceutical Combination Consisting of PD-L1 Inhibitor RB0005 and Other Types of TLR7/8 Agonists (Resiquimod)
as §3

[11] = Imiquimod 6.32 mg/kg (G4), with RB0005 1 mg/kg in single dosage form (G7)
[12] = Imiquimod 20 mg/kg (G5), with RB0005 1 mg/kg in single dosage form (G8)
[13] = RB0005 1 mg/kg (G2), Imiquimod 2 mg/kg (G3), both in single dosage form (G6)
[14] = intratumoral injection, RB0005 1 mg/kg (G4), Imiquimod 5 mg/kg (G6), LPG2006 single preparation (G8)

Molecule: CCNCc1nc2c(N)nc3ccccc3c2n1CC(C)(C)O [Gardiquimod]
- IRTW (tumor weight inhibition rate) [1]: 42% and 41.6%
- Tumor Weight [1]: 1.81 g

Molecule: CC(C)Cn1cnc2c(N)nc3ccccc3c21 [Imiquimod]
- IRTW (tumor weight inhibition rate) (colorectal cancer MC38): 23.35%
- Tumor Weight (colorectal cancer MC38): 2.70 g
- IRTW (tumor weight inhibition rate) [2]: 34.8%
- Tumor Weight [2]: 1.30 g
- Tumor Weight [3]: 1.93 g
- IRTW (tumor weight inhibition rate) [4, 11]: 58.5%
- Tumor Weight [4, 11]: 2.0 g
- IRTW (tumor weight inhibition rate) [4, 12]: 47.4%
- Tumor Weight [4, 12]: 1.8 g
- IRTW (tumor weight inhibition rate) [4, 13]: 27.5%
- Tumor Weight [4, 13]: 2.5 g
- survival rate in mice [5]: 50%
- IRTW (tumor weight inhibition rate) ([6]; every other day x3): 42.71%
- Tumor Weight ([6]; every other day x3): 3.62 g
- survival rate in mice ([6]; as of the end, every other day x3, combination in separate dosage forms): 40%
- growth of the tumor volume ([6]; vs solvent control): slower than that in the solvent control group
- Tumor Weight ([7]; intraperitoneal injection, RB0005 1 mg/kg (G3), Imiquimod 5 mg/kg (G5), LPG2006 single preparation (G7)): 3.74 g
- IRTW (tumor weight inhibition rate) [7, 14]: 23.5%
- Tumor Weight [7, 14]: 2.6 g
- IRTW (tumor weight inhibition rate) [8]: 48.8%
- Tumor Weight [8]: 0.73 g
- IRTW (tumor weight inhibition rate) ([9]; LPG2006 (RB0005 1 mg/kg + LPG2005 5 mg/kg)): 42%
- Tumor Weight ([9]; RB0005 1 mg/kg, LPG2006 single preparation): 1.05 g

Molecule: CCOCc1nc2c(N)nc3ccccc3c2n1CC(C)(C)O [Resiquimod]
- IRTW (tumor weight inhibition rate) [10]: 40% and 40.2%
- Tumor Weight [10]: 1.81 g

Molecule: Durvalumab: marketed anti PD-L1 monoclonal antibody
- IRTW (tumor weight inhibition rate) [8]: 21% and 20.9%
- Tumor Weight [8]: 1.13 g

Molecule: Sintilimab: marketed PD-1 inhibitor monoclonal antibody
- IRTW (tumor weight inhibition rate) [3]: 3.9%
- Tumor Weight [3]: 1.47 g

Molecule: Toripalimab: marketed PD-1 inhibitor monoclonal antibody
- IRTW (tumor weight inhibition rate) [3]: 49.7%
- Tumor Weight [3]: 0.92 g

B1: Tislelizumab: marketed PD-1 inhibitor monoclonal antibody (antibody, chains of the INN, looked up)
heavy: QVQLQESGPGLVKPSETLSLTCTVSGFSLTSYGVHWIRQPPGKGLEWIGVIYADGSTNYNPSLKSRVTISKDTSKNQVSLKLSSVTAADTAVYYCARAYGNYWYIDVWGQGTTVTVSSASTKGPSVFPLAPCSRSTSESTAALGCLVKDYFPEPVTVSWNSGALTSGVHTFPAVLQSSGLYSLSSVVTVPSSSLGTKTYTCNVDHKPSNTKVDKRVESKYGPPCPPCPAPPVAGGPSVFLFPPKPKDTLMISRTPEVTCVVVAVSQEDPEVQFNWYVDGVEVHNAKTKPREEQFNSTYRVVSVLTVVHQDWLNGKEYKCKVSNKGLPSSIEKTISKAKGQPREPQVYTLPPSQEEMTKNQVSLTCLVKGFYPSDIAVEWESNGQPENNYKTTPPVLDSDGSFFLYSKLTVDKSRWQEGNVFSCSVMHEALHNHYTQKSLSLSLG
light: DIVMTQSPDSLAVSLGERATINCKSSESVSNDVAWYQQKPGQPPKLLINYAFHRFTGVPDRFSGSGYGTDFTLTISSLQAEDVAVYYCHQAYSSPYTFGQGTKLEIKRTVAAPSVFIFPPSDEQLKSGTASVVCLLNNFYPREAKVQWKVDNALQSGNSQESVTEQDSKDSTYSLSSTLTLSKADYEKHKVYACEVTHQGLSSPVTKSFNRGEC
- IRTW (tumor weight inhibition rate) [3]: 61.4%
- Tumor Weight [3]: 0.59 g

B2: Camrelizumab: marketed PD-1 inhibitor monoclonal antibody (antibody, chains of the INN, looked up, V domains shown)
VH: EVQLVESGGGLVQPGGSLRLSCAASGFTFSSYMMSWVRQAPGKGLEWVATISGGGANTYYPDSVKGRFTISRDNAKNSLYLQMNSLRAEDTAVYYCARQLYYFDYWGQGTTVTVSS
VL: DIQMTQSPSSLSASVGDRVTITCLASQTIGTWLTWYQQKPGKAPKLLIYTATSLADGVPSRFSGSGSGTDFTLTISSLQPEDFATYYCQQVYSIPWTFGGGTKVEIK
- IRTW (tumor weight inhibition rate) [3]: 19.6%
- Tumor Weight [3]: 1.23 g
